One assay concerns the target RdRp (Nsp12 domain) (Severe acute respiratory syndrome coronavirus 2, UniProt P0DTD1). In words: biochemical. In kind it is binding, SARS-CoV-2.
Another assay concerns SARS-CoV-2. Conditions: in vivo; cited from earlier work.

As to `N#C[C@@]1(c2ccc3c(N)ncnn23)O[C@H](COP(=O)(O)OP(=O)(O)OP(=O)(O)O)[C@@H](O)[C@H]1O` [GS-443902], at RdRp (Nsp12 domain), the “binding to Nsp12 (in words)” value was “could not detect binding”.

A word on the Kd: it is the free concentration of one partner at which half of the binding sites on the other are occupied at equilibrium, for simple one-to-one binding. Higher therefore signals weaker binding. Compound `Cc1ccc(C(=O)Nc2ccc(S(=O)(=O)O)c3cc(S(=O)(=O)O)cc(S(=O)(=O)O)c23)cc1NC(=O)c1cccc(NC(=O)Nc2cccc(C(=O)Nc3cc(C(=O)Nc4ccc(S(=O)(=O)O)c5cc(S(=O)(=O)O)cc(S(=O)(=O)O)c45)ccc3C)c2)c1` [Suramin] came in with a dissociation constant (Kd) at RdRp (Nsp12 domain) of 827 ± 306 nM.

On to `Cn1cnc(Cn2c(=O)[nH]/c(=N\c3cc4cn(C)nc4cc3Cl)n(Cc3cc(F)c(F)cc3F)c2=O)n1` [Ensitrelivir], for which the decrease viral clearance with SARS-CoV-2 was 50 h.

On to Cc1ccc(NC(=O)c2ccc(nc2O)C2CC2)c(O)c1, for which the “binding to Nsp12 (in words)” value on RdRp (Nsp12 domain) is reported as “led to Nsp12 aggregation, so no KD could be determined”.

Regarding “FC(F)(F)c1ccc2nnc(CNC(=O)c3ccc4 C(=O)N5CCC-CCC5=Nc4c3)n2c1”, the “binding to Nsp12 (in words)” value on RdRp (Nsp12 domain) is listed as “led to Nsp12 aggregation, so no KD could be determined”.

For “Nc1nnnn1-c1cccc(c1)C(=O)NCc1cc(F)ccc1Oc1ccc(F)c-c(Cl)c1”, the “binding to Nsp12 (in words)” value on RdRp (Nsp12 domain) is “led to Nsp12 aggregation, so no KD could be determined”.

The values above are taken from publication PMC11299051 (Molecular informatics, 2023).
